The results in this text go back to US12662469B2 (SIRONAX LTD, priority 2018, dated 2026).

For this test, the system named is Cell Necrosis. In words: Cell necrosis assay / cell viability assay (necrosis inhibitor activity). Format: cell-based. The note with it: necrosis inhibitor activity; compounds outside 14-191; read-out: EC50.
By EC50 is commonly meant the concentration at which the effect is half-maximal. With `NC(=O)c1cc(OC2CN(C(=O)N3N=CC[C@H]3c3cc(F)cc(F)c3)C2)ccc1F` [Compound 220], the concentration giving a half-maximal response (EC50) lay in the range of 1 to 1000 nM.

As to `NC(=O)c1cc(F)c(OC2CN(C(=O)N3N=CC[C@H]3c3cc(F)cc(F)c3)C2)c(F)c1` [Compound 222, (S)-4-((1-(5-(3,5-difluorophenyl)-4,5-dihydro-1H-pyrazole-1-carbonyl)azetidin-3-yl)oxy)-3,5-difluorobenzamide], the EC50 lay within 1 to 1000 nM.

Take `O=C(N1CC(Oc2ccc3cc[nH]c3c2)C1)N1N=CC[C@H]1c1cc(F)cc(F)c1` [Compound 223, (S)-(3-((1H-indol-6-yl)oxy)azetidin-1-yl)(5-(3,5-difluorophenyl)-4,5-dihydro-1H-pyrazol-1-yl)methanone]: the EC50 is 1 to 1000 nM.

`O=C1Cc2ccc(OC3CN(C(=O)N4N=CCC4c4cc(F)cc(F)c4)C3)cc2N1` (stereo not drawn) [Compound 224, 6-((1-(5-(3,5-difluorophenyl)-4,5-dihydro-1H-pyrazole-1-carbonyl)azetidin-3-yl)oxy)indolin-2-one]: the EC50 was 1 to 1000 nM.

For the molecule `CC(=O)Nc1ccnc(N2CCN(C(=O)N3N=CC[C@H]3c3cc(F)cc(F)c3)CC2)n1` [Compound 225], the EC50 lay in the range of 1 to 1000 nM.

With `O=C(Nc1nc(N2CCN(C(=O)N3N=CC[C@H]3c3cc(F)cc(F)c3)CC2)ncc1F)C1CC1` [Compound 226, (S)—N-(2-(4-(5-(3,5-difluorophenyl)-4,5-dihydro-1H-pyrazole-1-carbonyl)piperazin-1-yl)-5-fluoropyrimidin-4-yl)cyclopropanecarboxamide], the EC50 lay in the range of 1 to 1000 nM.

For `NC(=O)c1ccc(OC2CN(C(=O)N3N=CCC3c3cc(F)cc(F)c3)C2)cc1Cl` (stereo not drawn) [Compound 227, 2-chloro-4-((1-(5-(3,5-difluorophenyl)-4,5-dihydro-1H-pyrazole-1-carbonyl)azetidin-3-yl)oxy)benzamide], the EC50 is 1 to 1000 nM.

As for `CC(=O)Nc1cccc(OC2CN(C(=O)N3N=CCC3c3cc(F)cc(F)c3)C2)c1` (stereo not drawn) [Compound 228, N-(3-((1-(5-(3,5-difluorophenyl)-4,5-dihydro-1H-pyrazole-1-carbonyl)azetidin-3-yl)oxy)phenyl)acetamide], the concentration for a half-maximal effect (EC50) fell in the range of 1 to 1000 nM.

On to `Nc1cccc(OC2CN(C(=O)N3N=CCC3c3cc(F)cc(F)c3)C2)c1` (stereo not drawn) [Compound 229, (3-(3-aminophenoxy)azetidin-1-yl)(5-(3,5-difluorophenyl)-4,5-dihydro-1H-pyrazol-1-yl)methanone], for which the half-maximal effective concentration (EC50) is 1 to 1000 nM.

Take `CC(=O)N(C)c1cccc(OC2CN(C(=O)N3N=CCC3c3cc(F)cc(F)c3)C2)c1` (stereo not drawn) [Compound 230, N-(3-((1-(5-(3,5-difluorophenyl)-4,5-dihydro-1H-pyrazole-1-carbonyl)azetidin-3-yl)oxy)phenyl)-N-methylacetamide]: the half-maximal effective concentration (EC50) fell in the range of 1 to 1000 nM.

As for `CNc1cccc(OC2CN(C(=O)N3N=CCC3c3cc(F)cc(F)c3)C2)c1` (stereo not drawn) [Compound 231, (5-(3,5-difluorophenyl)-4,5-dihydro-1H-pyrazol-1-yl)(3-(3-(methylamino)phenoxy)azetidin-1-yl)methanone], the 50% effective concentration (EC50) is 1 to 1000 nM.

In the case of `N#Cc1ccnc(N2CCN(C(=O)N3N=CC[C@H]3c3cc(F)cc(F)c3)CC2)c1` [Compound 232, (S)-2-(4-(5-(3,5-difluorophenyl)-4,5-dihydro-1H-pyrazole-1-carbonyl)piperazin-1-yl)isonicotinonitrile], the EC50 fell in the range of 1 to 1000 nM.

Turning to `N#Cc1cccc(N2CCN(C(=O)N3N=CC[C@H]3c3cc(F)cc(F)c3)CC2)n1` [Compound 233, (S)-6-(4-(5-(3,5-difluorophenyl)-4,5-dihydro-1H-pyrazol-1-carbonyl)piperazin-1-yl)picolinonitrile], the 50% effective concentration (EC50) was 1 to 1000 nM.

Take `O=C(N1CC(Oc2ccc3cn[nH]c3c2)C1)N1N=CC[C@H]1c1cc(F)cc(F)c1` [Compound 234, (S)(3-((1H-indazol-6-yl)oxy)azetidin-1-yl)(5-(3,5-difluorophenyl)-4,5-dihydro-1H-pyrazol-1-yl)methanone]: the 50% effective concentration (EC50) was 1 to 1000 nM.

Consider `N#Cc1ccc(F)c(OC2CN(C(=O)N3N=CC[C@H]3c3cc(F)cc(F)c3)C2)c1` [Compound 235, (S)-3-((1-(5-(3,5-difluorophenyl)-4,5-dihydro-1H-pyrazole-1-carbonyl)azetidin-3-yl)oxy)-4-fluorobenzonitrile], for which the EC50 lay in the range of 1 to 1000 nM.

Consider `N#Cc1cc(OC2CN(C(=O)N3N=CC[C@H]3c3cc(F)cc(F)c3)C2)ccc1F` [Compound 236, (S)-5-((1-(5-(3,5-difluorophenyl)-4,5-dihydro-1H-pyrazole-1-carbonyl)azetidin-3-yl)oxy)-2-fluorobenzonitrile], for which the EC50 fell in the range of 1 to 1000 nM.

With `N#Cc1cc(F)cc(OC2CN(C(=O)N3N=CC[C@H]3c3cc(F)cc(F)c3)C2)c1` [Compound 237, (S)-3-((1-(5-(3,5-difluorophenyl)-4,5-dihydro-1H-pyrazole-1-carbonyl)azetidin-3-yl)oxy)-5-fluorobenzonitrile], the EC50 was 1 to 1000 nM.

As for `N#Cc1cc(OC2CN(C(=O)N3N=CC[C@H]3c3cc(F)cc(F)c3)C2)c(F)cc1F` [Compound 238, (S)-5-((1(5-(3,5-difluorophenyl)-4,5-dihydro-1H-pyrazole-1-carbonyl)azetidin-3-yl)oxy)-2,4-difluorobenzonitrile], the EC50 was 1 to 1000 nM.

For the molecule `NC(=O)c1cc(OC2CN(C(=O)N3N=CC[C@H]3c3cc(F)cc(F)c3)C2)c(F)cc1F` [Compound 239, (S)-5-((1-(5-(3,5-difluorophenyl)-4,5-dihydro-1H-pyrazole-1-carbonyl)azetidin-3-yl)oxy)-2,4-difluorobenzamide], the concentration giving a half-maximal response (EC50) is 1 to 1000 nM.

As for `N#Cc1cnc2ccc(O[C@@H]3CCN(C(=O)N4N=CC[C@H]4c4cc(F)cc(F)c4)C3)nn12` [Compound 240, 6-(((R)-1-((S)-5-(3,5-difluorophenyl)-4,5-dihydro-1H-pyrazole-1-carbonyl)pyrrolidin-3-yl)oxy)imidazo[1,2-b]pyridazine-3-carbonitrile], the EC50 was 1 to 1000 nM.

For `NC(=O)c1cnc2ccc(O[C@@H]3CCN(C(=O)N4N=CC[C@H]4c4cc(F)cc(F)c4)C3)nn12` [Compound 241, 6-(((R)-1-((S)-5-(3,5-difluorophenyl)-4,5-dihydro-1H-pyrazole-1-carbonyl)pyrrolidin-3-yl)oxy)imidazo[1,2-b]pyridazine-3-carboxamide], the EC50 was 1 to 1000 nM.

In the case of `O=C(N1CC[C@@H](Oc2ccnc3ccnn23)C1)N1N=CC[C@H]1c1cc(F)cc(F)c1` [Compound 242, ((S)-5-(3,5-difluorophenyl)-4,5-dihydro-1H-pyrazol-1-yl)((R)-3-(pyrazolo[1,5-a]pyrimidin-7-yloxy)pyrrolidin-1-yl)methanone], the EC50 was 1 to 1000 nM.

Regarding `O=C1COc2cccc(O[C@@H]3CCN(C(=O)N4N=CC[C@H]4c4cc(F)cc(F)c4)C3)c2N1` [Compound 243, 5-(((R)-1-((S)-5-(3,5-difluorophenyl)-4,5-dihydro-1H-pyrazole-1-carbonyl)pyrrolidin-3-yl)oxy)-2H-benzo[b][1,4]oxazin-3(4H)-one], the EC50 fell in the range of 1 to 1000 nM.

Regarding `Nc1ccc(F)c(C=C2CN(C(=O)N3N=CC[C@H]3c3cc(F)cc(F)c3)C2)n1` [Compound 244], the half-maximal effective concentration (EC50) fell in the range of 1 to 1000 nM.
